In publication PMC9166630, “SAR Probing of KX2-391 Provided Analogues With Juxtaposed Activity Profile Against Major Oncogenic Kinases” (Frontiers in Oncology, 2022):
Several values for one entry are separate records, joined by “and”; a condition that tells them apart may be missing. Identical values can stand only once.

Assays:
Fyn = test: PamChip tyrosine kinase microarray, Fyn; format: biochemical, human; conditions: 4e 0.1 µM, HL60 lysate
Description: (§1) The changes in kinase activities induced by treatment with 4e were monitored within the HL60 cell lines using PamGene’s (Hertogenbosch, Netherlands) PamChip® peptide microarray profiler, which quantifies the activities of 144 tyrosine kinases (YK) ([29], [30]) (Figure 7). Results are provided as a log fold change (LFC) heatmap and Mean Kinase Statistic. From the LFC it is apparent that compound 4e, at a concentration of 0.1 µM, induced sizable changes to the activity of several kinases within the cell signaling YK profile (Figure 7A).
(§2) An Upstream Kinase tool was used to generate a putative list of kinases responsible for phosphorylating the phospho-sites on the PamChip (Figure 7B) ([31]). It is an interpretation and is highly dependent on the contents of the underlying phosphorylation databases. A Kinase Score was used for ranking kinases based on their significance and specificity in terms of the set of peptides used for the corresponding kinase. Kinase Statistics indicates the overall change of the peptide set that represents the kinase. Kinase statistics value <0 indicates lower kinase activity in the compound spiked lysate and vice versa ([32], [33]). Table 5 lists the 20 most changed kinases within treated HL60 cell lysates by 0.1 μM 4e, ranked according to their Kinase Score.
The two multiple-kinase tests (PamChip and Phosphokinase Profiler) provided strong evidence of very minor involvement of Src in the cellular activities of 4e. However, the question must be raised about the effect of the 4e on other SRC family kinase (SFK). To address this point, we must highlight that both R&D phosphokinase profiler and PamChip feature Yes, Fgr, Lyn, Lck and Src while Fyn, Hck, Blk and Frk activities are tested in the PamChip only. The signals of SFKs in the R&D Phosphokinase Profiler were too weak to detect in both untreated (control) and 4e-treated HL60 cells. In PamChip assay, most of SFK’s were not ranked in the top 20 affected kinases (Table 5). In addition, their Specificity Score were very low (Table 6) indicating their marginal importance to the cell killing activities of 4e. Fgr kinase which ranked 7th in the list (Table 5) was the only SFK member that seems to be affected by the compound, albeit with low Specificity Score (1.03).
The compound 4e was spiked into HL60 cell lysate at different concentrations (0.001, 0.01, 0.1, 1, 10 and 50 μM). In addition, DMSO was also spiked in HL60 lysate at low concentration (2% v/v) as control. Samples were profiled on PamGene’s Tyrosine Kinase (PTK) arrays in technical replicates, covering a total of 196 phosphorylation sites. Frozen HL60 cultured cell pellet was sent to PamGene. […] Protein concentration was measured using standard Bradford assay as per PamGene SOPs. […]

Fes = molecular target: T1, Fes (Homo sapiens, UniProt P07332); test: PamChip tyrosine kinase microarray, Fes; format: biochemical; conditions: 4e 0.1 µM, HL60 lysate
T1 construct: endogenous in cells; host or cells: HL60 lysate
Description: as §1, §2
(§3) The compound 4e was spiked into HL60 cell lysate at different concentrations (0.001, 0.01, 0.1, 1, 10 and 50 μM). In addition, DMSO was also spiked in HL60 lysate at low concentration (2% v/v) as control. Samples were profiled on PamGene’s Tyrosine Kinase (PTK) arrays in technical replicates, covering a total of 196 phosphorylation sites. Frozen HL60 cultured cell pellet was sent to PamGene. At PamGene, cells were lysed using a lysis buffer and proteases inhibitors cocktail. Protein concentration was measured using standard Bradford assay as per PamGene SOPs. These lysates were further used for generating the PTK activity profiles. For spiking, 4e was received as powder form and dissolved in DMSO at PamGene facility followed by storing at -20°C in small aliquots. PamGene used its in-house bioinformatics toolbox in combination with other methods to generate hypotheses of signaling pathways.

ERK1/2 = test: Human phosphokinase array, ERK1/2; format: cell-based
From the text: The kinome tree representation (Figure 7C), which was generated by raising the Kinase Score cut-off to >1.2, confirmed that, unlike tirbanibulin and our prototype molecule KX1-136, 4e’s effects were more observable on kinases other than the Src family such as the Eph and TEC families. […] Therefore, we screened compound 4e using the Human Phospho-Kinase Array® kit from R&D systems (Minneapolis, MN, USA). In this system, 35 phosphorylated YK and serine-threonine kinase (STK) enzymes in the untreated (control) and treated (test) HL60 cell lysates were captured on nitrocellulose membrane, pre-spotted with phosphokinase-specific capture antibodies, and then visualized by detection antibody cocktails (Figure 8). The difference in the spot intensity between untreated (control) and treated cells is proportional to change in the amount of the phosphorylated protein induced by 4e.
The phosphorylation profile of 48 kinases was performed using the Proteome Profiler Human Phospho-Kinase Antibody Array Kit by R&D Systems (Minneapolis, MN, USA) according to the protocol. Briefly, the total cellular protein was extracted using the Lysis buffer and was quantified using Bio-Rad DC Protein Assay kit (Hercules, CA, USA). Nitrocellulose membrane set (A&B), pre-spotted with kinase-specific capture antibodies, were first blocked with Array Buffer-1 at RT for 30 min on a rocking platform shaker. Approximately 600 µg of protein concentrate was diluted in the buffer provided and was added onto the membrane set, and the membranes were incubated overnight at 4°C in an 8-well plate. Subsequently, membranes were washed with Wash Buffer and incubated with appropriate Detection Antibody cocktails for 2 h at RT. Streptavadin-HRP (1:2000) was added onto membranes and incubated for 30 min at RT. Membranes were washed, and Chemiluminescent Detection Reagents 1&2 were applied in equal volumes for detection. The signals were detected on C-DiGit®Blot Scanner (LI-COR, Odyssey Imaging Systems, Lincoln, Nebraska, USA) using Image Studio 5.0 software.

Fgr = molecular target: T2, Fgr (Homo sapiens, UniProt P09769); test: PamChip tyrosine kinase microarray, Fgr; format: biochemical; conditions: 4e 0.1 µM
T2 construct: endogenous in cells; host or cells: HL60 lysate
Description: as §1, §2, §3

CTK = test: PamChip tyrosine kinase microarray, CTK; format: biochemical, human; conditions: 4e 0.1 µM, HL60 lysate
Description: as §1, §2, §3

JAK1~b = molecular target: T3, JAK1~b (Homo sapiens, UniProt P23458); test: PamChip tyrosine kinase microarray, JAK1~b; format: biochemical; conditions: 4e 0.1 µM, HL60 lysate
T3 construct: The compound 4e was spiked into HL60 cell lysate at different concentrations; endogenous in cells; host or cells: HL60 cell lysate
Description: as §1, §2, §3

PDGFR[beta] = test: PamChip tyrosine kinase microarray, PDGFR[beta]; format: biochemical, human; conditions: 4e 0.1 µM, HL60 lysate
Description: as §1, §2, §3

EphA2 = molecular target: T4, EphA2 (Homo sapiens, UniProt P29317); test: PamChip tyrosine kinase microarray, EphA2; format: biochemical; conditions: 4e 0.1 µM, HL60 lysate
T4 construct: endogenous in cells; host or cells: HL60 lysate
Description: as §1, §2, §3

T3 sequence (P23458 whole entry): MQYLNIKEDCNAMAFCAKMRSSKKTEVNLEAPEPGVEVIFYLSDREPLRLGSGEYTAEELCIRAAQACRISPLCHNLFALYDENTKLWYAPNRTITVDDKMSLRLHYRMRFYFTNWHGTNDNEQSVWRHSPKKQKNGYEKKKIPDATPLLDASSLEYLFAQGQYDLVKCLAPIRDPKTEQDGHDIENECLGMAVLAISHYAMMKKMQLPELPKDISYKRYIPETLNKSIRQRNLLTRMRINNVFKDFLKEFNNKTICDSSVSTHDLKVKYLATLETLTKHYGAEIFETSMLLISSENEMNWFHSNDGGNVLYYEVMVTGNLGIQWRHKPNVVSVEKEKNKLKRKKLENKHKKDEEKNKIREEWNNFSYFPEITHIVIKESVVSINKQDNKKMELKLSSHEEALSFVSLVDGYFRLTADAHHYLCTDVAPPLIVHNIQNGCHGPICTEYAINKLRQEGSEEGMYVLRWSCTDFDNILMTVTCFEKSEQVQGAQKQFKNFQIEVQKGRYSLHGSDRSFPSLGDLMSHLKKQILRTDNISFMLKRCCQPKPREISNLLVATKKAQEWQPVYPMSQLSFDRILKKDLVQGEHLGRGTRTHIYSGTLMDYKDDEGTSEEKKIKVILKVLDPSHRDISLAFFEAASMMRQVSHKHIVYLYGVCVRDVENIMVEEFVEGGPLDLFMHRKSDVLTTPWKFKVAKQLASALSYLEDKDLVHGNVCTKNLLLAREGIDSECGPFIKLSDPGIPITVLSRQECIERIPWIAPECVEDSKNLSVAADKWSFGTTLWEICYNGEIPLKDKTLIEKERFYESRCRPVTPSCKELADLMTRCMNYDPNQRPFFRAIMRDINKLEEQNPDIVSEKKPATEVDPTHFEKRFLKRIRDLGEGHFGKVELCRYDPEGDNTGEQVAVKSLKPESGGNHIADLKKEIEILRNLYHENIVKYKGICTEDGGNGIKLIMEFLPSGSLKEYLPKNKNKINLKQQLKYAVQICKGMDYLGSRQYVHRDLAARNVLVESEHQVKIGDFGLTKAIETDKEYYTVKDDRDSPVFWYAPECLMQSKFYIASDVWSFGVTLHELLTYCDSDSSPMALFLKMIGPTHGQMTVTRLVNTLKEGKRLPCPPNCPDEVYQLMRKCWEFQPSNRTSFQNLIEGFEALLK
T2 sequence (P09769 whole entry): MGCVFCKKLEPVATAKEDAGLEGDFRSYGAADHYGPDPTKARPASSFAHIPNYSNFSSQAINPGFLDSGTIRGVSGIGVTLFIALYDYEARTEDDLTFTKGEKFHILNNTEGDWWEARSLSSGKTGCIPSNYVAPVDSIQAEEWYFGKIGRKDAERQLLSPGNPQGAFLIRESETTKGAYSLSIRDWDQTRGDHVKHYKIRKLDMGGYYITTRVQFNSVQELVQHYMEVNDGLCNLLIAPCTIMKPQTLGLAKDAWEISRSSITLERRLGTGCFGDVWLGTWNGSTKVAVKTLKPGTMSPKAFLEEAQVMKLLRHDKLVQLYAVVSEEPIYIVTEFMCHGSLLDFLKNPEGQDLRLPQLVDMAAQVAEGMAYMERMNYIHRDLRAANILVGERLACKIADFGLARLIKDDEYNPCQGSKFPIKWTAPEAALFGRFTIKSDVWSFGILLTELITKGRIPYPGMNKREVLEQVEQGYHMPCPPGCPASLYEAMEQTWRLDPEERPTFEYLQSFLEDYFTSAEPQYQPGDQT
T4 sequence (P29317 24-976): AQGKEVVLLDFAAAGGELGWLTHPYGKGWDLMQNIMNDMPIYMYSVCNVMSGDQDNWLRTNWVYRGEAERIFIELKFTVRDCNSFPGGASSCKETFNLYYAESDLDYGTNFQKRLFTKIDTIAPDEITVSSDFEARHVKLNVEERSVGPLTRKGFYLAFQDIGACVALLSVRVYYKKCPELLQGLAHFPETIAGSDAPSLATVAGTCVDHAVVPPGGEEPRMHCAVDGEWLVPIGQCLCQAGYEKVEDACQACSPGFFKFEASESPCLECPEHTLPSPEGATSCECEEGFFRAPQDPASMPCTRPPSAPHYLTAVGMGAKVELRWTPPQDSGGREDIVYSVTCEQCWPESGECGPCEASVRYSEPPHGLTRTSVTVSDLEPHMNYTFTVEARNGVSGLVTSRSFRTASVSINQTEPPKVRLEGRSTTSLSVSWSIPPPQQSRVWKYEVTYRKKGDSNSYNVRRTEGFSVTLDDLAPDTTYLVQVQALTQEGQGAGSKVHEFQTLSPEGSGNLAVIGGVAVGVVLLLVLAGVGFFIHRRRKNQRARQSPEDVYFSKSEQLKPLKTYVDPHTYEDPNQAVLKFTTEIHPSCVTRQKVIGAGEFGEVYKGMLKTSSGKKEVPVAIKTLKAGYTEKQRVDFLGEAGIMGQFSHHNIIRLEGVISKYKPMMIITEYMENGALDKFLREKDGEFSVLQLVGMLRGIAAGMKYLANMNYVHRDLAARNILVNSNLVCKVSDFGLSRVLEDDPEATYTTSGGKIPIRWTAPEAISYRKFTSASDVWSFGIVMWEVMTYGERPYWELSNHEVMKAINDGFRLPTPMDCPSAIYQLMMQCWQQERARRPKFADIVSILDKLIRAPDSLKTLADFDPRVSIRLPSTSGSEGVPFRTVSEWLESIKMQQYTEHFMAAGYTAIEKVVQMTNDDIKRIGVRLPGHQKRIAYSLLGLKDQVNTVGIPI
T1 sequence (P07332 whole entry): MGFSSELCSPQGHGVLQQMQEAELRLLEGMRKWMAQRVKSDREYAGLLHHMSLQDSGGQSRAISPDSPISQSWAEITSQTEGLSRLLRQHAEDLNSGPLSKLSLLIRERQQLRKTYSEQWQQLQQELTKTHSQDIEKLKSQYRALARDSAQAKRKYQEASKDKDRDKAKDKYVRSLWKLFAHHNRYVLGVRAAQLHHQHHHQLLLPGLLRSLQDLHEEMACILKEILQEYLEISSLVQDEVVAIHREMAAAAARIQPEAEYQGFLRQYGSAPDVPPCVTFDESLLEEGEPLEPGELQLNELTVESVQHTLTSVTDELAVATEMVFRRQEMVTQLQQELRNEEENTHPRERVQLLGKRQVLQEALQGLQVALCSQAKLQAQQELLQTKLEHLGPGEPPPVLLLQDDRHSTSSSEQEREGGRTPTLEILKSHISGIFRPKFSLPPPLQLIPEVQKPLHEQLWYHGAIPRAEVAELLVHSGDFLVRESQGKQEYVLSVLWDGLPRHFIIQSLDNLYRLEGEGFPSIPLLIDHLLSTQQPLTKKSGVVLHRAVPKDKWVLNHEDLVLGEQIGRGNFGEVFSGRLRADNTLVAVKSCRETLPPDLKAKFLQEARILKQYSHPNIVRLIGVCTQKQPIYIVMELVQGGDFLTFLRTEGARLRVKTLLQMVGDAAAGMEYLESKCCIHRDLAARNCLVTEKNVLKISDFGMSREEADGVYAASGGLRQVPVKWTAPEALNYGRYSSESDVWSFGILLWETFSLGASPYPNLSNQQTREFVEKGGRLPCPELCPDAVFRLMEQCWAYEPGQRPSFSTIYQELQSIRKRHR

SMILES: O=C(Cc1ccc(NC(=O)c2cccc(Cl)c2)cc1)NCc1ccccc1 [Compound 4e, N-(4-(2-(benzylamino)-2-oxoethyl)phenyl)-3-chlorobenzamide]
- Mean Final Score (Fyn): 1.4765
- Mean Kinase Statistic (Fyn): -0.4963
- Mean Significance Score (Fyn): 1.1307
- Mean Specificity Score (Fyn): 0.3458
- Mean Final Score (Fes): 2.3241
- Mean Kinase Statistic (Fes): -0.6958
- Mean Significance Score (Fes): 1.2140
- Mean Specificity Score (Fes): 1.1101
- reduction of ERK1/2 activity (ERK1/2; HL60, kinase profiling): > 99%
- phosphokinase signal after 4e exposure, ERK1/2 (ERK1/2; HL60 cell lysate, treated): 1.05
- % Change, ERK1/2 (ERK1/2; treated vs untreated HL60): -99.41%
- Change in Signal, ERK1/2 (ERK1/2; treated vs untreated HL60): -177.83
- PamGene Ranking (Fgr; HL60): 7
- Mean Final Score (Fgr; HL60 lysate): 2.2023
- Mean Kinase Statistic (Fgr; HL60 lysate): -0.7971
- Mean Significance Score (Fgr; HL60 lysate): 1.1688
- Mean Specificity Score (Fgr; HL60 lysate): 1.03 and 1.0335
- Mean Final Score (CTK): 1.5802
- Mean Kinase Statistic (CTK): -0.4874
- Mean Significance Score (CTK): 1.1881
- Mean Specificity Score (CTK): 0.3920
- Mean Final Score (JAK1~b): 1.3907
- Mean Kinase Statistic (JAK1~b): -0.5828
- Mean Significance Score (JAK1~b): 0.8736
- Mean Specificity Score (JAK1~b): 0.5171
- Mean Final Score (PDGFR[beta]): 1.8565
- Mean Kinase Statistic (PDGFR[beta]): -0.5885
- Mean Significance Score (PDGFR[beta]): 1.2570
- Mean Specificity Score (PDGFR[beta]): 0.5995
- Mean Final Score (EphA2): 2.4004
- Mean Kinase Statistic (EphA2): -0.7066
- Mean Significance Score (EphA2): 1.5807
- Mean Specificity Score (EphA2): 0.8197
